Measurements as given in patent US20250262336A1, “[177LU] LUTETIUM-PSMA I&T COMPOSITION AND DOSIMETRY, KIT, METHOD OF MAKING, AND METHOD OF USING THEREOF” (Curium US LLC, priority 2023, published 2025).

Test: Cycle 3 biodistribution and dosimetry (SPECT/CT, single or multiple time points)
Type: in vivo, human
Protocol: (§1) To evaluate potential changes in the tracer's kinetics and uptake after multiple treatment cycles, 16 of the 27 patients included in the dosimetry sub study, were imaged at both cycle 1 and cycle 3. Among these, at cycle 3, three patients were imaged at all 4 timepoints and the other 13 were imaged at one or two timepoints only (24 h, 48 h or both 24 h and 48 h) (Table 2). For these 13 patients, the TACs obtained at cycle 1 were used for each source organ and scaled to the normalized activity value(s) measured at Cycle 3. For patients imaged at two timepoints, the TACs were preferably scaled using the average scaling factor between the two timepoints.
(§2) A subgroup of 16 out of the 27 patients underwent and additional dosimetry assessment at Cycle 3. Among these, three patients had dosimetry performed based on images taken at 4 timepoints, while the remaining patients had dosimetry performed at 1 or 2 imaging timepoints only.
as §1, with “7 in Appendix 1).” for “2).”
as §2, with “only, as described in Section 4.4.1.” for “only.”

[1] = Lacrimal Glands (OLINDA sphere model), N = 16

Absorbed Dose in Cycle 3, Mean (Adrenals, N = 16): 0.02 Gy/GBq | Absorbed Dose in Cycle 3, max (Adrenals, N = 16): 0.03 Gy/GBq | Absorbed Dose in Cycle 3, min (Adrenals, N = 16): 0.01 Gy/GBq | Absorbed Dose in Cycle 3, Mean (Brain, N = 16): 0.01 Gy/GBq | Absorbed Dose in Cycle 3, max (Brain, N = 16): 0.02 Gy/GBq | Absorbed Dose in Cycle 3, min (Brain, N = 16): 0.00 Gy/GBq | Absorbed Dose in Cycle 3, Mean (Esophagus, N = 16): 0.01 Gy/GBq | Absorbed Dose in Cycle 3, max (Esophagus, N = 16): 0.02 Gy/GBq | Absorbed Dose in Cycle 3, min (Esophagus, N = 16): 0.00 Gy/GBq | Absorbed Dose in Cycle 3, Mean (Eyes, N = 16): 0.01 Gy/GBq | Absorbed Dose in Cycle 3, max (Eyes, N = 16): 0.02 Gy/GBq | Absorbed Dose in Cycle 3, min (Eyes, N = 16): 0.00 Gy/GBq | Absorbed Dose in Cycle 3, Mean (Gallbladder wall, N = 16): 0.01 Gy/GBq | Absorbed Dose in Cycle 3, max (Gallbladder wall, N = 16): 0.02 Gy/GBq | Absorbed Dose in Cycle 3, min (Gallbladder wall, N = 16): 0.00 Gy/GBq | Absorbed Dose in Cycle 3, Mean (Heart wall, N = 16): 0.01 Gy/GBq | Absorbed Dose in Cycle 3, max (Heart wall, N = 16): 0.02 Gy/GBq | Absorbed Dose in Cycle 3, min (Heart wall, N = 16): 0.00 Gy/GBq | Absorbed Dose in Cycle 3, Mean (Kidneys, N = 16): 0.49 Gy/GBq | Absorbed Dose in Cycle 3, max (Kidneys, N = 16): 0.85 Gy/GBq | Absorbed Dose in Cycle 3, min (Kidneys, N = 16): 0.19 Gy/GBq | Absorbed Dose in Cycle 3, Mean [1]: 0.29 Gy/GBq | Absorbed Dose in Cycle 3, max [1]: 0.73 Gy/GBq | Absorbed Dose in Cycle 3, min [1]: 0.10 Gy/GBq | Absorbed Dose in Cycle 3, Mean (Left colon, N = 16): 0.41 Gy/GBq | Absorbed Dose in Cycle 3, max (Left colon, N = 16): 0.94 Gy/GBq | Absorbed Dose in Cycle 3, min (Left colon, N = 16): 0.07 Gy/GBq | Absorbed Dose in Cycle 3, Mean (Liver, N = 16): 0.06 Gy/GBq | Absorbed Dose in Cycle 3, max (Liver, N = 16): 0.15 Gy/GBq | Absorbed Dose in Cycle 3, min (Liver, N = 16): 0.00 Gy/GBq | Absorbed Dose in Cycle 3, Mean (Lungs, N = 16): 0.01 Gy/GBq | Absorbed Dose in Cycle 3, max (Lungs, N = 16): 0.02 Gy/GBq | Absorbed Dose in Cycle 3, min (Lungs, N = 16): 0.00 Gy/GBq | Absorbed Dose in Cycle 3, Mean (Osteogenic cells, N = 16): 0.02 Gy/GBq | Absorbed Dose in Cycle 3, max (Osteogenic cells, N = 16): 0.09 Gy/GBq | Absorbed Dose in Cycle 3, min (Osteogenic cells, N = 16): 0.00 Gy/GBq | Absorbed Dose in Cycle 3, Mean (Pancreas, N = 16): 0.01 Gy/GBq | Absorbed Dose in Cycle 3, max (Pancreas, N = 16): 0.02 Gy/GBq | Absorbed Dose in Cycle 3, min (Pancreas, N = 16): 0.00 Gy/GBq | Absorbed Dose in Cycle 3, Mean (Prostate, N = 16): 0.01 Gy/GBq | Absorbed Dose in Cycle 3, max (Prostate, N = 16): 0.02 Gy/GBq | Absorbed Dose in Cycle 3, min (Prostate, N = 16): 0.01 Gy/GBq | Absorbed Dose in Cycle 3, Mean (Rectum, N = 16): 0.39 Gy/GBq | Absorbed Dose in Cycle 3, max (Rectum, N = 16): 0.90 Gy/GBq | Absorbed Dose in Cycle 3, min (Rectum, N = 16): 0.06 Gy/GBq | Absorbed Dose in Cycle 3, Mean (Red Marrow, N = 16): 0.03 Gy/GBq | Absorbed Dose in Cycle 3, max (Red Marrow, N = 16): 0.17 Gy/GBq | Absorbed Dose in Cycle 3, min (Red Marrow, N = 16): 0.00 Gy/GBq | Absorbed Dose in Cycle 3, Mean (Right Colon, N = 16): 0.22 Gy/GBq | Absorbed Dose in Cycle 3, max (Right Colon, N = 16): 0.51 Gy/GBq | Absorbed Dose in Cycle 3, min (Right Colon, N = 16): 0.04 Gy/GBq | Absorbed Dose in Cycle 3, Mean (Salivary Glands, N = 16): 0.20 Gy/GBq | Absorbed Dose in Cycle 3, max (Salivary Glands, N = 16): 0.69 Gy/GBq | Absorbed Dose in Cycle 3, min (Salivary Glands, N = 16): 0.04 Gy/GBq | Absorbed Dose in Cycle 3, Mean (Small intestine, N = 16): 0.04 Gy/GBq | Absorbed Dose in Cycle 3, max (Small intestine, N = 16): 0.10 Gy/GBq | Absorbed Dose in Cycle 3, min (Small intestine, N = 16): 0.01 Gy/GBq | Absorbed Dose in Cycle 3, Mean (Spleen, N = 16): 0.03 Gy/GBq | Absorbed Dose in Cycle 3, max (Spleen, N = 16): 0.12 Gy/GBq | Absorbed Dose in Cycle 3, min (Spleen, N = 16): 0.01 Gy/GBq | Absorbed Dose in Cycle 3, Mean (Stomach Wall, N = 16): 0.01 Gy/GBq | Absorbed Dose in Cycle 3, max (Stomach Wall, N = 16): 0.02 Gy/GBq | Absorbed Dose in Cycle 3, min (Stomach Wall, N = 16): 0.00 Gy/GBq | Absorbed Dose in Cycle 3, Mean (Testes, N = 16): 0.01 Gy/GBq | Absorbed Dose in Cycle 3, max (Testes, N = 16): 0.02 Gy/GBq | Absorbed Dose in Cycle 3, min (Testes, N = 16): 0.00 Gy/GBq | Absorbed Dose in Cycle 3, Mean (Thymus, N = 16): 0.01 Gy/GBq | Absorbed Dose in Cycle 3, max (Thymus, N = 16): 0.02 Gy/GBq | Absorbed Dose in Cycle 3, min (Thymus, N = 16): 0.00 Gy/GBq | Absorbed Dose in Cycle 3, Mean (Thyroid, N = 16): 0.01 Gy/GBq | Absorbed Dose in Cycle 3, max (Thyroid, N = 16): 0.02 Gy/GBq | Absorbed Dose in Cycle 3, min (Thyroid, N = 16): 0.00 Gy/GBq | Absorbed Dose in Cycle 3, Mean (Total Body, N = 16): 0.02 Gy/GBq | Absorbed Dose in Cycle 3, max (Total Body, N = 16): 0.03 Gy/GBq | Absorbed Dose in Cycle 3, min (Total Body, N = 16): 0.01 Gy/GBq | Absorbed Dose in Cycle 3, Mean (Urinary Bladder wall, N = 16): 0.45 Gy/GBq | Absorbed Dose in Cycle 3, max (Urinary Bladder wall, N = 16): 0.70 Gy/GBq | Absorbed Dose in Cycle 3, min (Urinary Bladder wall, N = 16): 0.36 Gy/GBq | organ absorbed radiation dose, kidneys (cycle 3, 16 patients imaged at cycle 1 and 3): 0.49±0.19 Gy/GBq
Compound: O=C(O)CC[C@H](NC(=O)N[C@@H](CCCCNC(=O)CCCCCCC(=O)NCCCC[C@@H](NC(=O)[C@@H](Cc1ccccc1)NC(=O)[C@@H](Cc1ccc(O)c(I)c1)NC(=O)CC[C@H](C(=O)O)N1CCN(CC(=O)O)CCN(CC(=O)O)CCN(CC(=O)O)CC1)C(=O)O)C(=O)O)C(=O)O [^177Lu-PSMA-I&T, (3S,7 S,26R,29R,32R,37R)-29-benzyl-32-(4-hydroxy-3-iodobenzyl)-5,13,20,28,31,34-hexaoxo-37-(4,7,10-tris(carboxymethyl)-1,4,7,10-tetraazacyclododecan-1-yl)-4,6,12,21,27,30,33-heptaazaheptatriacontane-1,3,7,26,37-pentacarboxylic acid; lutetium-177 (III), metal not drawn]
Absorbed Dose in Cycle 3, Mean (in vivo): 0.29 Gy/GBq | Absorbed Dose in Cycle 3, max (in vivo): 0.73 Gy/GBq | Absorbed Dose in Cycle 3, min (in vivo): 0.10 Gy/GBq
